Laboratory results reported in publication PMC11219871, “Epigenetic-based differentiation therapy for Acute Myeloid Leukemia” (Nature Communications, 2024).

What was measured:
Experiment in all cases: Epigenetic panel (BPS Bioscience)
Format in all cases: biochemical
EZH1 = biological target: T1, EZH1 (Homo sapiens, UniProt Q92800)
T1 construct: purchased BPS Bioscience; Eurofins (HDAC4, 5, 7-11)
How it was run: (§1)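 Single-point screen: 10 μM compound, duplicate wells. Compounds: CM-444, CM-1758.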

EZH2 (Y641C) = biological target: T2, EZH2 (Y641C) (Homo sapiens, UniProt Q15910, Y641C)
T2 construct: purchased BPS Bioscience; Eurofins (HDAC4, 5, 7-11)
How it was run: as §1

EZH2 (Y641N) = biological target: T3, EZH2 (Y641N) (Homo sapiens, UniProt Q15910, Y641N)
T3 construct: purchased BPS Bioscience; Eurofins (HDAC4, 5, 7-11)
How it was run: as §1

GCN5 = biological target: T4, GCN5 (Homo sapiens, UniProt Q92830); settings: read-out: % of inhibition
T4 construct: purchased BPS Bioscience; Eurofins (HDAC4, 5, 7-11)
T4 sequence (Q92830 whole entry): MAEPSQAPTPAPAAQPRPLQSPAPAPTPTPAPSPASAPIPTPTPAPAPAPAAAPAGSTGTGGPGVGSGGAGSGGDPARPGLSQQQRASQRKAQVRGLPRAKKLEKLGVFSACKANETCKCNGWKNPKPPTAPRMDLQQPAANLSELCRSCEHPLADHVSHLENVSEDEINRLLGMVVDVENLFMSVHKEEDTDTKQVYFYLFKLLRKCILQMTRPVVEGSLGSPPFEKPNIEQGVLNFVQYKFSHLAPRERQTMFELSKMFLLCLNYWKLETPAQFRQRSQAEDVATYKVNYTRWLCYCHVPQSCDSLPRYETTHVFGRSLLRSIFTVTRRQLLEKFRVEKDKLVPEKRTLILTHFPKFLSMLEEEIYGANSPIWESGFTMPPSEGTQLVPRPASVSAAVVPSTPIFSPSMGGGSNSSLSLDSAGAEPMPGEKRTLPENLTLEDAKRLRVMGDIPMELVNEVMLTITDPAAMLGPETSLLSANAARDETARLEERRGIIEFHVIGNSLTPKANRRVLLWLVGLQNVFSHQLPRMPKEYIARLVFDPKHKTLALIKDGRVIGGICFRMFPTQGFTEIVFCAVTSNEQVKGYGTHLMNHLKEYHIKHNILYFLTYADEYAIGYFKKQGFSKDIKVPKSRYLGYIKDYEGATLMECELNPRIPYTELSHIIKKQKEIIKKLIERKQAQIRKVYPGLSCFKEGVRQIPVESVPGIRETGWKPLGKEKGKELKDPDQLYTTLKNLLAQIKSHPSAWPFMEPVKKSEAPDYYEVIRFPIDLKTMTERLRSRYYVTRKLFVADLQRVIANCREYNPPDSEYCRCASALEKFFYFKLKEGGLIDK
How it was run: as §1

GLP = biological target: T5, GLP (Homo sapiens, UniProt Q9H9B1)
T5 construct: purchased BPS Bioscience; Eurofins (HDAC4, 5, 7-11)
T5 sequence (Q9H9B1 whole entry): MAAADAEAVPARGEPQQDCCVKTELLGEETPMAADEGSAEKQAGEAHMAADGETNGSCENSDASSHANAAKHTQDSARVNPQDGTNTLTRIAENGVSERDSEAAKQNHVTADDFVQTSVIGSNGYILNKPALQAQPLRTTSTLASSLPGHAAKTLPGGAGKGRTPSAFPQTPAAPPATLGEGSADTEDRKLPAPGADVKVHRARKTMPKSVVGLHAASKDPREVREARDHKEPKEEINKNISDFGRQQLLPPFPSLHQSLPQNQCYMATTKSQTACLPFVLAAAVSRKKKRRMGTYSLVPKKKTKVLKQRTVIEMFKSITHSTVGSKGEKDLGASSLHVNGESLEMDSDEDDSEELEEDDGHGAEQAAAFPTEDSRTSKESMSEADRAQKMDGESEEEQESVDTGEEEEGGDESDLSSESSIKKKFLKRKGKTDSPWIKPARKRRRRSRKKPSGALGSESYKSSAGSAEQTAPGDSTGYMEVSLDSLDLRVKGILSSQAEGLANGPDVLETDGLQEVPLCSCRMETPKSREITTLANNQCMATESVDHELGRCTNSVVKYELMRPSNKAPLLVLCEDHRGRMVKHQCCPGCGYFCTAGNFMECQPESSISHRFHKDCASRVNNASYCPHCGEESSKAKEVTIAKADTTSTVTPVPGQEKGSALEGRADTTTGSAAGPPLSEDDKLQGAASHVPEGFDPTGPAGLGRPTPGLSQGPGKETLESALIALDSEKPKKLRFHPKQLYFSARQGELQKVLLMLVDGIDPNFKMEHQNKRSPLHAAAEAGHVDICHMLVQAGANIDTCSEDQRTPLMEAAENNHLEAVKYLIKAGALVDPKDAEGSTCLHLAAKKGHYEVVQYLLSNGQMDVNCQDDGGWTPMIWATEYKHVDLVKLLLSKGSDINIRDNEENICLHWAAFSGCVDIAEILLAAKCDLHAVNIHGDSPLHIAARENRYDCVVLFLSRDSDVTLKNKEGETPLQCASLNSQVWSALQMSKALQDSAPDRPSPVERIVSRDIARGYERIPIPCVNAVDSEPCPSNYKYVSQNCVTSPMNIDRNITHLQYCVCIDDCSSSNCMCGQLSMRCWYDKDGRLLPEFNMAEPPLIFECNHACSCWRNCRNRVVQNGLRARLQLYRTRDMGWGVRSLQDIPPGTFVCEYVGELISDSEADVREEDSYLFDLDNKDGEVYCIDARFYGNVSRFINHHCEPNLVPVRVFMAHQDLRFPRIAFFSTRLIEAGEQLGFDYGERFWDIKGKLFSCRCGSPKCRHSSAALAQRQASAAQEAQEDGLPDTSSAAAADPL
How it was run: as §1

JMJD1B = biological target: T6, JMJD1B (Homo sapiens, UniProt Q7LBC6)
T6 construct: purchased BPS Bioscience; Eurofins (HDAC4, 5, 7-11)
T6 sequence (Q7LBC6 whole entry): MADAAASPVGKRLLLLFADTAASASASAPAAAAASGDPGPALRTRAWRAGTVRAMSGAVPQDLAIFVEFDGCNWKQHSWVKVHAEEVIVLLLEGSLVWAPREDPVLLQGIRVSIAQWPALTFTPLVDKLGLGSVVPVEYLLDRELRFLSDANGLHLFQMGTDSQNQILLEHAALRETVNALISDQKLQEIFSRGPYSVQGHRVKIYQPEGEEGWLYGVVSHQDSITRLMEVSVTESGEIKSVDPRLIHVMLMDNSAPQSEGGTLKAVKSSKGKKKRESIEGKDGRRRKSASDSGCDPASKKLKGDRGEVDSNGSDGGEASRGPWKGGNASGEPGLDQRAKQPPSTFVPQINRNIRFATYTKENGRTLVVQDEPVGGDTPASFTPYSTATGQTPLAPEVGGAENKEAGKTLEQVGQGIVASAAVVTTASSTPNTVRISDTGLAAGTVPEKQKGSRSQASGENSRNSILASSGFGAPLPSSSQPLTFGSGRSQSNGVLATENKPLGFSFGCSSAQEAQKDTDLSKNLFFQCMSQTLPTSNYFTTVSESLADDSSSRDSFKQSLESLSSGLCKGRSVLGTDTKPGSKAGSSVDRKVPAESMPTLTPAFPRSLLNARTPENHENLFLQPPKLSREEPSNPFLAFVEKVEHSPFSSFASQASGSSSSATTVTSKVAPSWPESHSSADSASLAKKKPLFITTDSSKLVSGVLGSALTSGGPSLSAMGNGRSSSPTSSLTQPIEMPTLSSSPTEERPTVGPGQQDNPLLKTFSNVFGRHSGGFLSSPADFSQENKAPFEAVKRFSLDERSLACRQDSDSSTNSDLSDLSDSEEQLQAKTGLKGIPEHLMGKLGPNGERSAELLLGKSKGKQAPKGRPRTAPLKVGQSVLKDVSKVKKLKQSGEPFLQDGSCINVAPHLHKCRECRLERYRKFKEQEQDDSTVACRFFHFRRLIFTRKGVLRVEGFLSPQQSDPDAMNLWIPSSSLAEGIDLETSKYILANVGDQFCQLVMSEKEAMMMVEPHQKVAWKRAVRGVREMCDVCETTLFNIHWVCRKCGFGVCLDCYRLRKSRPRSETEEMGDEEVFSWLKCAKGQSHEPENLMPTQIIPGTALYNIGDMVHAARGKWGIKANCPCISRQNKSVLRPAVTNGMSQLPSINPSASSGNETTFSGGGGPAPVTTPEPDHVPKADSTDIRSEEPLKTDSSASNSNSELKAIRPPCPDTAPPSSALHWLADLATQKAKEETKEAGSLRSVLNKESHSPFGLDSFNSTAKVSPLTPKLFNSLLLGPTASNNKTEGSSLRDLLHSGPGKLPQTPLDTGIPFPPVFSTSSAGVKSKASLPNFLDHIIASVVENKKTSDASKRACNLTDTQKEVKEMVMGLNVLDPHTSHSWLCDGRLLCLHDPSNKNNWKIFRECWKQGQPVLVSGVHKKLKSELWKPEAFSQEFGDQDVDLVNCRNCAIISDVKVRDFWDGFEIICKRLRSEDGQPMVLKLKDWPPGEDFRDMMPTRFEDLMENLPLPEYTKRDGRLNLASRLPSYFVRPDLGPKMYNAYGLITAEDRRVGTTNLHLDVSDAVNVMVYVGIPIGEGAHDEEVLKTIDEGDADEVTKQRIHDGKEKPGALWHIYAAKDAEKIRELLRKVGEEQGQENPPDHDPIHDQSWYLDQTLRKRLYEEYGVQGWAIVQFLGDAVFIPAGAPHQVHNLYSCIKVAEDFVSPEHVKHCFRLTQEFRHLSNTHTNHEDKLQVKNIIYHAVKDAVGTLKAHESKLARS
How it was run: as §1

JMJD2D = biological target: T7, JMJD2D (Homo sapiens, UniProt Q6B0I6)
T7 construct: purchased BPS Bioscience; Eurofins (HDAC4, 5, 7-11)
How it was run: as §1

LSD1 = biological target: T8, LSD1 (Homo sapiens, UniProt O60341)
T8 construct: purchased BPS Bioscience; Eurofins (HDAC4, 5, 7-11)
How it was run: as §1

LSD2 = biological target: T9, LSD2 (Homo sapiens, UniProt Q8NB78)
T9 construct: purchased BPS Bioscience; Eurofins (HDAC4, 5, 7-11)
T9 sequence (Q8NB78 whole entry): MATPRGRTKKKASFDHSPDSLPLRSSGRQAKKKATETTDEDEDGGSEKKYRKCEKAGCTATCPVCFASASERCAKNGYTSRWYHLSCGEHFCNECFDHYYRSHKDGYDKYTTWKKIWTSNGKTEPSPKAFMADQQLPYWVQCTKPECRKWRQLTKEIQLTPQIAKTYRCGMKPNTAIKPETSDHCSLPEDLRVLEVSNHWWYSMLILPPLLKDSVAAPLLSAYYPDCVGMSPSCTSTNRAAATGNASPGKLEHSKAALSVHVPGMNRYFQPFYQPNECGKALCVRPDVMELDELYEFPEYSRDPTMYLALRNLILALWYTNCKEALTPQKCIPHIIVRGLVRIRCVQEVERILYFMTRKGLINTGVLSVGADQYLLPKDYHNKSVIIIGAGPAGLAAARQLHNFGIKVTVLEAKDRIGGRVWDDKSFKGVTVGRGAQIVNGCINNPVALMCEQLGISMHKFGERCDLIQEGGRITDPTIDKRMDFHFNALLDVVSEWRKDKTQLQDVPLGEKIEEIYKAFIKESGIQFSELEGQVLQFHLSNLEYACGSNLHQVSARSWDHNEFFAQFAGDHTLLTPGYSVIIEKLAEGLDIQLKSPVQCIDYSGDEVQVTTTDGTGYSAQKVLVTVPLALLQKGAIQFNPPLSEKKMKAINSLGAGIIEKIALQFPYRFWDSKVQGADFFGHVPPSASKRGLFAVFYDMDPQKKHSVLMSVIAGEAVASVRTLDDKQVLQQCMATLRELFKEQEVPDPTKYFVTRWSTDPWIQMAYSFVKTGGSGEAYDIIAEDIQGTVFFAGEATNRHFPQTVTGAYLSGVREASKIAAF
How it was run: as §1

PRMT9 = biological target: T10, PRMT9 (Homo sapiens, UniProt Q6P2P2); settings: for inhibition at 10 µM: read-out: % of inhibition
T10 sequence (Q6P2P2 1-845): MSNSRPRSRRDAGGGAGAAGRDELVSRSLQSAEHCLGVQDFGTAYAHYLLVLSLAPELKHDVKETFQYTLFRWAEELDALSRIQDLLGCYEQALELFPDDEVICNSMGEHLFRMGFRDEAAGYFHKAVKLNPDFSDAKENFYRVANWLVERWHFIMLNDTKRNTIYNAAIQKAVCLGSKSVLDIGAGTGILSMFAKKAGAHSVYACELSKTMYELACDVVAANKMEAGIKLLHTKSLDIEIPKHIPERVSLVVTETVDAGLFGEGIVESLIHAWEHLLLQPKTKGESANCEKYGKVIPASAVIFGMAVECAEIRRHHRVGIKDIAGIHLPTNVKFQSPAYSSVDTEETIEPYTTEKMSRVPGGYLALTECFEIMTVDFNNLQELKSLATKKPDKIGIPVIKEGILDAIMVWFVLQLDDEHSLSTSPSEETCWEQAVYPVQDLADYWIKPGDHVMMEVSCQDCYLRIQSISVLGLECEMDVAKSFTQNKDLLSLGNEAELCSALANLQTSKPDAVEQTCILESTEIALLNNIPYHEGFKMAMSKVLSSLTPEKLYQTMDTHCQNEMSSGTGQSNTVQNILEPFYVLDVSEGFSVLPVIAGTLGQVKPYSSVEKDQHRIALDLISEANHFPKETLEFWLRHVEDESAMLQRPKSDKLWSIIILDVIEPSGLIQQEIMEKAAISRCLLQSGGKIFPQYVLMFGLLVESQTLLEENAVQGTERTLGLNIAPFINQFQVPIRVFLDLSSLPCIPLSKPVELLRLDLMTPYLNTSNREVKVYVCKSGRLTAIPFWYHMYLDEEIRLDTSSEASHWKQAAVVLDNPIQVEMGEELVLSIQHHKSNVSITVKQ
How it was run: as §1

SET7/9 = biological target: T11, SET7/9 (Homo sapiens, UniProt Q8WTS6)
T11 construct: purchased BPS Bioscience; Eurofins (HDAC4, 5, 7-11)
T11 sequence (Q8WTS6 whole entry): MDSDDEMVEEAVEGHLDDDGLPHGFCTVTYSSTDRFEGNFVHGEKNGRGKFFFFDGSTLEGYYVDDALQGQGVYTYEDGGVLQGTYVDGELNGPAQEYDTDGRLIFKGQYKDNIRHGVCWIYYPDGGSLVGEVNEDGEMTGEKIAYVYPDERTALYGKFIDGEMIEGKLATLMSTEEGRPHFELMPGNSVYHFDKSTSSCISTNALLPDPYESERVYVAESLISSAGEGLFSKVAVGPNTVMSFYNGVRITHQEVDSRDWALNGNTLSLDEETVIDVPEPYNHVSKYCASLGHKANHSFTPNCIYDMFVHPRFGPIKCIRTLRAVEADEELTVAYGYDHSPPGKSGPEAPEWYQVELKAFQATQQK
How it was run: as §1

SET8 = biological target: T12, SET8 (Homo sapiens, UniProt Q9NQR1)
T12 construct: purchased BPS Bioscience; Eurofins (HDAC4, 5, 7-11)
How it was run: as §1

| Compound | inhibition at 10 µM (EZH1) | inhibition at 10 µM (EZH2 (Y641C)) | inhibition at 10 µM (EZH2 (Y641N)) | inhibition at 10 µM (GCN5) | inhibition at 10 µM (GLP) | inhibition at 10 µM (JMJD1B) | inhibition at 10 µM (JMJD2D) | inhibition at 10 µM (LSD1) | inhibition at 10 µM (LSD2) | IC50 (PRMT9) | inhibition at 10 µM (PRMT9) | inhibition at 10 µM (SET7/9) | inhibition at 10 µM (SET8) |
| --- | --- | --- | --- | --- | --- | --- | --- | --- | --- | --- | --- | --- | --- |
| COc1cc2nc(-c3ccc(C)o3)cc(NCC3CCN(c4ncc(C(=O)NO)cn4)CC3)c2cc1OC [CM-444, 2-[4-[[[6,7-dimethoxy-2-(5-methyl-2-furyl)-4-quinolyl]amino]methyl]-1-piperidyl]pyrimidine-5-carbohydroxamic acid] | 9% | 4% | 2% | 31% | 0% | 6% | 5% | 16% | 21% | 19.2 µM | 76% | 0% | 4% |
| COc1cc2nc(-c3cc(C)oc3C)cc(NCC3CCN(c4ncc(C(=O)NO)cn4)CC3)c2cc1OC [CM-1758, 2-[4-[[[2-(2,5-dimethyl-3-furyl)-6,7-dimethoxy-4-quinolyl]amino]methyl] -1-piperidyl]pyrimidine-5-carbohydroxamic acid] | 0% | 0% | 0% | 12% | 7% | 11% | 0% | 20% | 22% | 22.7 µM | 52% | 19% | 9% |
